Assay results from PubChem BioAssay (NCI).
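1) Cells in 96-well plates. 2) Compound, 48 h, 5 concentrations. 3) Linear interpolation between surrounding doses. 4) Unreached endpoint = highest concentration. At the GI50, growth is halved. TGI: concentration producing complete growth inhibition.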

How the values were obtained:
Assay in all cases: DTP human tumour cell line panel, 48 h
NCI-H226 lung = test system: NCI-H226 lung
SK-OV-3 ovarian = test system: SK-OV-3 ovarian
NCI-H23 lung = test system: NCI-H23 lung
HCT-116 colon = test system: HCT-116 colon
U251 CNS = test system: U251 CNS
SW-620 colon = test system: SW-620 colon
RPMI-8226 leukemia = test system: RPMI-8226 leukemia
HCT-15 colon = test system: HCT-15 colon
NCI-H460 lung = test system: NCI-H460 lung
A549 NSCLC = test system: A549 NSCLC

SMILES | TGI (NCI-H226 lung) | TGI (SK-OV-3 ovarian) | TGI (NCI-H23 lung) | TGI (HCT-116 colon) | TGI (U251 CNS) | TGI (SW-620 colon) | TGI (RPMI-8226 leukemia) | TGI (HCT-15 colon) | TGI (NCI-H460 lung) | TGI (A549 NSCLC) | GI50 (NCI-H226 lung) | GI50 (SK-OV-3 ovarian) | GI50 (NCI-H23 lung) | GI50 (HCT-116 colon) | GI50 (U251 CNS) | GI50 (SW-620 colon) | GI50 (RPMI-8226 leukemia) | GI50 (HCT-15 colon) | GI50 (NCI-H460 lung) | GI50 (A549 NSCLC)
COc1cc2c3c(c1OC)-c1ccccc1C(C(OC(C)=O)c1ccccc1)C3N(C)CC2 (centres undefined) | > 100 µM | > 100 µM | > 100 µM | > 100 µM | > 100 µM | > 100 µM | 80.7 µM | > 100 µM | > 100 µM | > 100 µM |  |  |  |  |  |  |  |  |  | 
CC(=O)NC1C(OCc2ccccc2)OC(COC(=O)CCCCCCCCCCNC(=O)c2cccc3c(=O)c4ccccc4[nH]c23)C(O)C1OC(C)C(=O)NC(C)C(=O)NC(CCC(N)=O)C(N)=O (centres undefined) | > 100 µM | > 100 µM | > 100 µM | > 100 µM | > 100 µM | > 100 µM | > 100 µM | > 100 µM | > 100 µM | > 100 µM |  |  |  |  |  |  |  |  |  | 
CCN(CC)CCC(=O)Nc1ccc(Cn2nnc3c2C(=O)c2nnn(Cc4ccc(NC(=O)CCN(CC)CC)cc4)c2C3=O)cc1 | 3.46 µM | 5.88 µM | 1.22 µM | 1.12 µM | 0.688 µM | 1.75 µM | 3.15 µM | > 100 µM | 1.46 µM | 3.4 µM | 1.51 µM | 2.08 µM | 0.326 µM | 0.283 µM | 0.254 µM | 0.395 µM | 0.53 µM | 26.7 µM | 0.356 µM | 1.51 µM
Cc1ccc(C2=Nc3c(N)ncnc3NC(c3cccc(Nc4ccnc5cc(C(F)(F)F)ccc45)c3)C2)cc1 (centres undefined) | > 100 µM | 51 µM | 16.7 µM | 10.5 µM | 15.1 µM | 11.3 µM | 6.05 µM | 16.5 µM | 10.5 µM | 13.2 µM | 15.2 µM | 5.93 µM | 3.6 µM | 2.86 µM | 3.73 µM | 2.87 µM | 2.17 µM | 2.82 µM | 3.07 µM | 3.63 µM
O=C1OCC(C(=O)c2cccc(O)c2)C1=O (centres undefined) | > 100 µM | > 100 µM | > 100 µM | > 100 µM | > 100 µM | > 100 µM | > 100 µM | > 100 µM | > 100 µM | > 100 µM |  |  |  |  |  |  |  |  |  | 
N#Cc1c2c(c(N=[N+]=[N-])n3c1nc1ccccc13)CCCC2 | 3.35 µM | 3.64 µM | 6.27 µM | 3.51 µM | 10.3 µM | 4.31 µM | 6.85 µM | 4.38 µM | 3.82 µM | 17 µM |  |  |  |  |  |  |  |  |  | 
CC(C)c1ccc(/C=C(\NC(=O)c2ccccc2)c2nc3ccccc3[nH]2)cc1 | > 100 µM | > 100 µM | 75.3 µM | > 100 µM | > 100 µM | > 100 µM | 45.2 µM | > 100 µM | > 100 µM | 82.5 µM |  |  |  |  |  |  |  |  |  | 
O=C(OCc1ccccc1CN1CCOCC1)c1ccc(Br)cc1 | > 100 µM | > 100 µM | > 100 µM | > 100 µM | > 100 µM | > 100 µM | 49.7 µM | > 100 µM | > 100 µM | > 100 µM |  |  |  |  |  |  |  |  |  | 
Cc1ccc(NC(=O)CCC(=O)C2CC(=O)CC/C2=N\NC(=O)c2cc3ccccc3cc2O)cc1C (centres undefined) | 97.2 µM | > 100 µM | 38 µM | > 100 µM | > 100 µM | > 100 µM | > 100 µM | > 100 µM | > 100 µM | > 100 µM |  |  |  |  |  |  |  |  |  | 
COc1ccccc1C(=O)c1cnc(NC2CCN(S(C)(=O)=O)CC2)nc1N | > 23.1 µM | > 25 µM | > 25 µM | > 25 µM | > 25 µM | > 25 µM | > 25 µM | > 25 µM | > 25 µM | > 25 µM | 4.62 µM | > 25 µM | 5.71 µM | 4.52 µM | 4.06 µM | 4.33 µM | 6.57 µM | 6.28 µM | 2.85 µM | 4.68 µM
CCOC(=O)c1[nH]c2c(c1C)-c1[nH]c(=O)c(S(=O)(=O)c3ccccc3)cc1SC2 | > 100 µM | > 100 µM | > 100 µM | > 100 µM | > 100 µM | > 100 µM | > 100 µM | > 100 µM | > 100 µM | > 100 µM | 64.4 µM | 56.6 µM | 41.1 µM | 36.1 µM | 31.1 µM | 57.9 µM | 44 µM | > 100 µM | 34.6 µM | 41.3 µM
O=C(Cc1nc2ccc(C(=O)c3ccccc3)cc2[nH]c1=O)C(=O)Nc1ccccc1[N+](=O)[O-] | > 100 µM | > 100 µM | > 100 µM | > 100 µM | > 100 µM | > 100 µM | > 100 µM | > 100 µM | > 100 µM | > 100 µM |  |  |  |  |  |  |  |  |  | 
N#CC1c2ccccc2-c2ccccc2N1C(=O)c1ccccc1 (centres undefined) | > 100 µM | > 45.2 µM | > 100 µM | 9.22 µM | > 46.7 µM | > 100 µM | 5.32 µM | > 100 µM | 10.9 µM | > 38.8 µM | 3.11 µM | 4.36 µM | 3.09 µM | 1.74 µM | 2.68 µM | 0.585 µM | 0.903 µM | 1.38 µM | 3.06 µM | 2.97 µM
CC1OC(=O)N(CCCC=C2SCCCS2)C1=O (centres undefined) | > 100 µM | > 100 µM | > 100 µM | > 100 µM | > 100 µM | > 100 µM | > 100 µM | > 100 µM | > 100 µM | > 100 µM |  |  |  |  |  |  |  |  |  | 
CC1=C(C#N)C(N)=C2C(C)=C(C#N)C(N)=C12 | > 100 µM | > 100 µM | > 100 µM | > 100 µM | > 100 µM | > 100 µM | > 100 µM | > 100 µM | > 100 µM | > 100 µM |  |  |  |  |  |  |  |  |  | 
COC(=O)C12CC(C3CC31)C1CC12 (centres undefined) | > 100 µM | > 100 µM | > 100 µM | > 100 µM | > 100 µM | > 100 µM | > 100 µM | > 100 µM | > 100 µM | > 100 µM |  |  |  |  |  |  |  |  |  | 
c1ccc2c(c1)nc(NCCN1CCNCC1)c1c3ccccc3[nH]c21 | 3.91 µM | 8.53 µM | 2.03 µM | 1.42 µM | 1.94 µM | 2.54 µM | 0.399 µM | 0.7 µM | 1.14 µM | 1.21 µM | 1.2 µM | 2.16 µM | 0.666 µM | 0.165 µM | 0.377 µM | 0.25 µM |  | 0.176 µM | 0.221 µM | 0.206 µM
C[C@@H](NC(=O)Cc1cc(F)cc(F)c1)C(=O)N[C@@]1(C)N=C(c2ccccc2)c2ccccc2N(C)C1=O | 71.9 µM | > 100 µM | > 100 µM | > 100 µM | > 100 µM | > 100 µM | 10.5 µM | > 100 µM | > 100 µM | > 100 µM | 24 µM | > 100 µM | 43.4 µM | 32.2 µM | > 84.8 µM | 94.4 µM | 2.11 µM | > 78.1 µM | 40.4 µM | 66.1 µM
COC(=O)/C(C#N)=C1\N=NNN1CCCN1CCOCC1 | > 100 µM | > 100 µM | > 100 µM | > 100 µM | > 100 µM | > 100 µM | > 100 µM | > 100 µM | > 100 µM | > 100 µM |  |  |  |  |  |  |  |  |  | 
CC1(CC(=O)O)OC2CCCCCC2O1 (centres undefined) (tested in a mixture with another compound) | > 100 µM | > 100 µM | > 100 µM | > 100 µM | > 100 µM | > 100 µM | > 100 µM | > 100 µM | > 100 µM | > 100 µM |  |  |  |  |  |  |  |  |  | 
Cc1ccc(NCSc2ccc(Cl)cc2)cc1 | > 100 µM | > 100 µM | > 100 µM | > 100 µM | > 100 µM | > 100 µM | > 100 µM | > 100 µM | > 100 µM | > 100 µM | 44.7 µM | 67 µM | 63.4 µM | 55.4 µM | 17.8 µM | > 100 µM | 2.29 µM | > 100 µM | > 100 µM | 9.8 µM
Brc1ccc2c(c1)C1(c3cc(Br)ccc3-2)c2cc(Br)ccc2-c2ccc(Br)cc21 | > 100 µM | > 100 µM | > 100 µM | > 100 µM | > 100 µM | > 100 µM | > 100 µM | > 100 µM | > 100 µM | > 100 µM |  |  |  |  |  |  |  |  |  | 
NC(Cc1nn[nH]n1)C(=O)O (centres undefined) | > 100 µM | > 100 µM | > 100 µM | > 100 µM | > 100 µM | > 100 µM | > 100 µM | > 100 µM | > 100 µM | > 100 µM |  |  |  |  |  |  |  |  |  | 
O=c1c2ccccc2nc(-c2ccccc2)n1NCC1(O)OCC(O)C(O)C1O (centres undefined) | > 100 µM | > 100 µM | > 100 µM | > 100 µM | > 100 µM | > 100 µM | > 100 µM | > 100 µM | > 100 µM | > 100 µM |  |  |  |  |  |  |  |  |  | 
O=C1CCC2(CCC(=O)NC2=O)C(=O)N1 | > 100 µM | > 100 µM | > 100 µM | > 100 µM | > 100 µM | > 100 µM | > 100 µM | > 100 µM | > 100 µM | > 100 µM |  |  |  |  |  |  |  |  |  | 
